From patent publication US10792248B2, “Aqueous suspension preparation comprising nanoparticles of macrolide antibacterial agent” (ACTIVUS PHARMA CO., LTD., priority 2013, dated 2020)
Converted amounts (≈) assume the structure as drawn. Like-named read-outs stand apart in the source and are kept apart here.

Legend:
[1] = test system: Staphylococcus aureus subsp. aureus; assay: Minimum inhibitory concentration (MIC) test, broth microdilution method; format: cell-based; conditions: 35±1° C., 18 to 24 hours, replicates
Method: (§1) An MIC test was conducted by applying the minimum inhibitory concentration (MIC) measurement method by the broth microdilution method (the standard method of Japanese Society of Chemotherapy). The clarithromycin suspension prepared in Example 6 (1) (test substance 1) was used as a test substance. An unpulverized clarithromycin suspension (test substance 2) and a clarithromycin solution in DMSO (test substance 3) were used as controls for comparisons.
(§2) Each of the test substances was stirred for 15 seconds or more using a vortex mixer before dilution. The clarithromycin-containing samples (test substances 1 to 3) were diluted with Mueller Hinton II broth to be a concentration of 250 μg/mL, and then two-fold diluted serially to prepare mediums containing the each sample at a final drug concentration of 0.012 to 25 μg/mL, which were used for inoculation of Staphylococcus aureus subsp. aureus. Similarly, the samples were diluted with Mueller Hinton II broth to a concentration of 1000 μg/mL, and then two-fold diluted serially to prepare mediums containing the each sample at a final drug concentration of 0.049 to 100 μg/mL, which were used for inoculating Pseudomonas aeruginosa.
(§3) To a U-shaped well microplate, 0.1±0.02 mL per well of the each prepared test substance-containing medium was dispensed. Drug-free medium was dispensed into two wells as a control.
(§4) Staphylococcus aureus subsp. aureus or Pseudomonas aeruginosa was cultured overnight in Mueller Hinton II agar medium. The fresh cultured bacterium on the agar plate was suspended in equivalent to 0.5 McFarand (about 10^8 CFU/mL) with sterilized saline and further diluted tenfold (about 10^7 CFU/mL) with sterilized saline to prepare a bacterium liquid.
(§5) To each of the wells to which the test substance-containing medium or the test substance-free medium was dispensed, 0.005 mL of the bacterium liquid of Staphylococcus aureus subsp. aureus or Pseudomonas aeruginosa prepared in the above (2-2) was inoculated (final amount of bacterium liquid: about 10^4 CFU/well). The bacterium liquid was not inoculated to a part of the wells with the test substance-free medium to prepare negative control wells. After inoculation, the media were cultured at 35±1° C. for 18 to 24 hours.
(§6) After confirming growth in the control wells containing the test substance-free media, the minimum inhibitory concentration (MIC) was determined as the minimum drug concentration in which the growth of bacterium was not detected with the naked eye. […] When turbidity or a precipitation was not observed with the naked eye, or when only one precipitation with the diameter of 1 mm or less was observed, the growth was determined negative (−).

Pseudomonas aeruginosa = assay: as above; format: cell-based; conditions: 35±1° C., 18 to 24 hours, replicates
Method: as §1, §2, §3, §4, §5, §6

[2] = cited from earlier work
[3] = formulation with effective average diameter of less than 2000 nm combined with a surface stabilizer (Patent Literature 4); cited from earlier work
[4] = test system: nontuberculous mycobacteria; conditions: cited from earlier work
[5] = rabbit, in vivo; cited from earlier work
[6] = Stability test of nanoized clarithromycin suspension formulation, residual ratio by HPLC (Example 10); format: physicochemical; conditions: 5° C., 25° C. and 40° C., 14 days
Method: A quantity of 6 to 8 g of the nanoized clarithromycin suspension formulations (clarithromycin concentrations 0.3% and 1.0%) produced in Example 7 (1) were weighed in a 9 mL-screw vial, allowed to stand in thermo-hygrostats each set at 5° C., 25° C., and 40° C. to carry out the stability test over a period of 14 days. On days 7 and 14, the clarithromycin concentrations were determined by high performance liquid chromatography (HPLC), and the residual ratio was determined as compared to the clarithromycin concentration immediately after the formulation which was taken as 100% to evaluate the stability. The HPLC analysis conditions were as follows.
Apparatus: Waters alliance
Column: Inertsil ODS 4.6 mm×150 mm
Column temperature: 50° C.
Detection wavelength: 210 nm

## CC[C@H]1OC(=O)[C@H](C)[C@@H](O[C@H]2C[C@@](C)(OC)[C@@H](O)[C@H](C)O2)[C@H](C)[C@@H](O[C@@H]2O[C@H](C)C[C@H](N(C)C)[C@H]2O)[C@](C)(OC)C[C@@H](C)C(=O)[C@H](C)[C@@H](O)[C@]1(C)O [Clarithromycin solution in DMSO, clarithromycin]
[1]
  MIC: 0.391 µg/mL (≈ 0.523 µM)
  Minimum inhibitory concentration: 0.391 µg/mL (≈ 0.523 µM)
Pseudomonas aeruginosa
  MIC: > 100 µg/mL
  Minimum inhibitory concentration: >100 µg/mL

## CC[C@H]1OC(=O)[C@H](C)[C@@H](O[C@H]2C[C@@](C)(OC)[C@@H](O)[C@H](C)O2)[C@H](C)[C@@H](O[C@@H]2O[C@H](C)C[C@H](N(C)C)[C@H]2O)[C@](C)(OC)C[C@@H](C)C(=O)[C@H](C)[C@@H](O)[C@]1(C)O [clarithromycin]
[2]; acetone
  solubility in acetone: slightly soluble
[2]; chloroform
  solubility in chloroform: slightly soluble
[2]; ethanol
  solubility in ethanol: very slightly soluble
[2]; ether
  solubility in ether: very slightly soluble
[2]; formulation with effective average diameter of less than 2000 nm combined with a surface stabilizer (Patent Literature 4)
  solubility: higher solubility
[2]; methanol
  solubility in methanol: very slightly soluble
[2]; pulverized with L-ascorbic-acid 2-glycoside (Non Patent Literature 1)
  solubility: enhanced solubility
[2]; water
  solubility in water: practically insoluble
[3]
  oral bioavailability: higher oral bioavailability
[4]
  effectiveness against nontuberculous mycobacteria relative to azithromycin: four to eight times as effective as azithromycin
[5]
  retention in the cornea: retained in the cornea
[6]
  stability (decomposition) in the suspension formulations: not decomposed but stable
